# Laboratory results from US20240025906A1 (NEURON23, INC., priority 2022, published 2024).
# pIC50, pKd: −log10 of the molar value. Read-outs that look alike come from different tables or passages of the source.
# How the values were obtained:
# TYK2 JH2 = target: T1, TYK2 JH2 (Homo sapiens, UniProt P29597); assay: TYK2 JH2 binding assay (KINOMEscan KdELECT competitive binding); conditions: TYK2 JH2 domain
# T1 construct: purchased DiscoverX (KINOMEscan KdELECT service); host or cells: E. coli BL21-derived (T7 phage display) or HEK-293
# Method: Assay A: TYK2 JH2 Binding Assay
# Competitive binding studies using TKY2 JH2-domain fragments were conducted by DiscoverX using the KINOMEscan (KdELECT) platform. Kinase-tagged T7 phage strains were prepared in an E. coli host derived from the BL21 strain. E. coli were grown to log-phase and infected with […] and incubated with shaking at 32° C. until lysis. The lysates were centrifuged and filtered to remove cell debris. The remaining kinases were produced in HEK-293 cells and subsequently tagged with DNA for qPCR detection. Streptavidin-coated magnetic beads were treated with biotinylated small molecule ligands for 30 minutes at room temperature to generate affinity resins for kinase assays. The liganded beads were blocked with excess biotin and washed with blocking buffer (SeaBlock (Pierce), 1% BSA, 0.05% Tween 20, 1 mM DTT) to remove unbound ligand and to reduce non-specific binding. Binding reactions were assembled by combining kinases, liganded affinity beads, and test compounds in 1× binding buffer (20% SeaBlock, 0.17×PBS, 0.05% Tween 20, 6 mM DTT). Test compounds were prepared as 111× stocks in 100% DMSO. Kds were determined using an 11-point 3-fold compound dilution series with three DMSO control points. All compounds for Kd measurements are distributed by acoustic transfer (non-contact dispensing) in 100% DMSO. The compounds were then diluted directly into the assays such that the final concentration of DMSO was 0.9%. All reactions performed in polypropylene 384-well plate. Each was a final volume of 0.02 ml. The assay plates were incubated at room temperature with shaking for 1 hour and the affinity beads were washed with wash buffer (1×PBS, 0.05% Tween 20). The beads were then re-suspended in elution buffer (1×PBS, 0.05% Tween 20, 0.5 μM non-biotinylated affinity ligand) and incubated at room temperature with shaking for 30 minutes. The kinase concentration in the eluates was measured by qPCR.
# [1] = system: JAK1/TYK2 pSTAT5 (Tyr694/699) in THP-1 cell line; assay: IFNa-stimulated JAK1/TYK2 pSTAT5 (Tyr694/699) inhibition cellular assay, AlphaLISA; format: cell-based; conditions: Homo sapiens, THP-1 cells, AlphaLISA (Assay B)
# Method: Assay B: JAK1/TYK2 pSTAT5 (Tyr694/699) inhibition IC50 Cellular Assays
# To evaluate the inhibition effect of compounds disclosed herein against TYK2, an IFNa-stimulated JAE1/TYK2 pSTAT5 (Tyr694/699) quantification assay was conducted in the THP-1 cell line using an AlphaLISA detection method (PerkinElmer ALSU-PST5). Compounds in DMSO were serially diluted in a 96-well plate (10 mM starting concentration, 6-fold dilutions, 8 concentrations total) prior to dispensing of 8 nL into a 384-well plate using an I.DOT non-contact liquid handler (Dispendix). Cells were collected via centrifugation at 300 ref for 5 min and resuspended in Hanks' Balanced Salt Solution (Gibco 14175-079), and 6 μl containing 2e4 cells was dispensed into each well of the 384-well plate containing test compounds or DMSO alone (final concentrations: 10000, 1666.67, 277.78, 46.30, 7.72, 1.29, 0.21 and 0.04 nM). Cells were then incubated for 1 h at 37° C. with 5% CO2 prior to the addition of 2 μL IFNa (100 ng/mL; PBL Assay Science 11175-1). Following an additional 30 min incubation at 37° C. with 5% CO2, 2 μL of 5× lysis buffer was added to each well using the I.DOT […]. Plates were sealed and incubated at RT for 10 min on a plate shaker set to 400 RPM. Cell lysates were then frozen at −80° C. before subsequent detection of pSTAT5 by AlphaLISA. At the time of the detection assay, cell lysates were thawed for 5 min at room temperature and then on a plate shaker set to 400 RPM for an additional 10 min. Following the manufacturer recommended protocol (Perkin Elmer), 5 μL of acceptor bead master mix was added to each well; plates were then resealed and incubated for 2 min at RT on a plate shaker (400 rpm) prior to an additional 2-h incubation without agitation (protected from light). Donor bead master mix, 5 uL per well, was then added to each well before 2 min of shaking (RT, 400 rpm) and 2-h incubation (RT, no shaking, protected from light). Levels of pSTAT5 protein were then measured as fluorescent signal at 615 nm with an EnVision multimode plate reader (Perkin Elmer). IC50 values were calculated in Dotmatics using the four-parameter logistic curve regression model with bottom fixed to 0 and Hill Slope fixed to −1.
# [2] = DiscoverX KINOMEscan KdELECT (Assay A), read-out: Biochemical TYK2_DiscoverX_JH2_BND_Kd
# [3] = IFNa-stimulated, read-out: Cellular_THP1_IFNa-pSTATS_TYK2
# [4] = KINOMEscan KdELECT (Assay A), read-out: Biochemical TYK2_DiscoverX_JH2_BND_Kd
# [5] = IFNa-stimulated pSTAT5 (Tyr694/699), read-out: Cellular_THP1_IFNa-pSTATS_TYK2
# T1 sequence (P29597 589-875 limits assumed): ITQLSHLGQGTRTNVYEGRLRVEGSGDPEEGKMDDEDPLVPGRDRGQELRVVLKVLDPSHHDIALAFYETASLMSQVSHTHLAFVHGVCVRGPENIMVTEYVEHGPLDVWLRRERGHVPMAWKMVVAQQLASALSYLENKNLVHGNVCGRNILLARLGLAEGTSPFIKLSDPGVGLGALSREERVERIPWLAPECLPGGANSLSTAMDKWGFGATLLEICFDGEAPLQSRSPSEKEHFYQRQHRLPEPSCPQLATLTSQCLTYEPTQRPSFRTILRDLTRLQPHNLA
pKd (TYK2 JH2; [2]),"pIC50 [1, 3]",pKd (TYK2 JH2; [4]),Compound,other results
≥ 7.00,≥ 6.30,–,"CCOC(=O)[C@@H]1C[C@@H]1C(=O)Nc1cc2c(-c3nc4cc(OC)ccc4o3)cnc(NC)c2cn1 (racemic) [Example 391, ethyl 2-((5-(5-methoxybenzo[d]oxazol-2-yl)-8-(methylamino)-2,7-naphthyridin-3-yl)carbamoyl)cyclopropane-1-carboxylate]",–
≥ 7.00,≥ 6.30,–,"CNc1ncc(-c2nc3cc(OC[C@H](C)OC)ccc3o2)c2cc(NC(=O)C3CC3)ncc12 [Example 242, (S)—N-(5-(5-(2-methoxypropoxy)benzo[d]oxazol-2-yl)-8-(methylamino)-2,7-naphthyridin-3-yl)cyclopropanecarboxamide]",–
≥ 7.00,≥ 6.30,–,"CNc1ncc(-c2nc3cccc(Cl)n3n2)c2cc(NC(=O)C3CC3)ncc12 [Example 490, N-(5-(5-chloro-[1,2,4]triazolo[1,5-a]pyridin-2-yl)-8-(methylamino)-2,7-naphthyridin-3-yl)cyclopropanecarboxamide]",–
≥ 7.00,≥ 6.30,–,"CNc1ncc(-c2nc3cc(N4CCN(C)CC4)ccc3o2)c2cc(NC(=O)C3CC3)ncc12 [Example 304, N-(8-(methylamino)-5-(5-(4-methylpiperazin-1-yI)benzo[d]oxazol-2-y1)-2,7-naphthyridin-3-yl)cyclopropanecarboxamide]",–
–,≥ 6.30,≥ 7.00,"CNc1ncc(C#Cc2ccncn2)c2cc(NC(=O)C3CC3)ncc12 [Example 599, N-(8-(methylamino)-5-(pyrimidin-4-ylethynyl)-2,7-naphthyridin-3-yl)cyclopropanecarboxamide]",–
–,–,–,"CNc1ncc(/C=C/c2ccc(OC)cc2)c2cc(NC(=O)C3CC3)ncc12 [Example 135, (E)-N-(5-(4-methoxystyryl)-8-(methylamino)-2,7-naphthyridin-3-yl)cyclopropanecarboxamide]","pKd (TYK2 JH2; KINOMEscan KdELECT (Assay A), read-out: Biochemical TYK2_JH2_Kd): ≥ 7.00; pIC50 ([1]; IFNa-stimulated, read-out: Cellular THP1_IFNa-pSTATS_IC50): ≥ 6.30"
–,≥ 6.30,≥ 7.00,"CNc1ncc(-c2ccc(Oc3ccncc3)cc2)c2cc(NC(=O)C3CC3)ncc12 [Example 858, N-(8-(methylamino)-5-(4-(pyridin-4-yloxy)phenyl)-2,7-naphthyridin-3-yl)cyclopropanecarboxamide]",–
–,≥ 6.30,≥ 7.00,"CNc1ncc(-c2nc3cc(N4CCOC(C(F)(F)F)C4)ccc3o2)c2cc(NC(=O)C3CC3)ncc12 (centres unmarked) [Example 921, N-(8-(methylamino)-5-(5-(2-(trifluoromethyl)morpholino)benzo[d]oxazol-2-yl)-2,7-naphthyridin-3-yl)cyclopropanecarboxamide]",–
–,–,≥ 7.00,CNc1ncc(-c2nc3cccc(OC)n3n2)c2cc(NC(=O)C3CC3)ncc12 [Example 1039],"pIC50 [1, 5]: ≥ 6.30"
≥ 7.00,≥ 6.30,–,"CNc1ncc(-c2nc3cc(OC)ccc3o2)c2cc(Nc3cc(C)nc(C)n3)ncc12 [Example 377, N^6-(2,6-dimethylpyrimidin-4-yl)-4-(5-methoxybenzo[d]oxazol-2-yl)-N^1-methyl-2,7-naphthyridine-1,6-diamine]",–
≥ 7.00,≥ 6.30,–,"CNc1ncc(-c2nc3cc(N4CCO[C@@H](C)C4)ccc3o2)c2cc(NC(=O)[C@@H]3C[C@@H]3F)ncc12 [Example 407, (1S,2S)-2-fluoro-N-(8-(methylamino)-5-(5-((S)-2-methylmorpholino)benzo[d]oxazol-2-yl)-2,7-naphthyridin-3-yl)cyclopropane-1-carboxamide]",–
–,< 6.30,≥ 7.00,"CNc1ncc(-c2ccc(N3CCC3CC#N)cc2)c2cc(NC(=O)C3CC3)ncc12 (centres unmarked) [Example 860, N-(5-(4-(2-(cyanomethyl)azetidin-1-yl)phenyl)-8-(methylamino)-2,7-naphthyridin-3-yl)cyclopropanecarboxamide]",–
≥ 7.00,≥ 6.30,–,"CNc1ncc(-c2nc3cc(C(F)(F)F)ccc3o2)c2cc(NC(=O)C3CC3)ncc12 [Example 217, N-(8-(methylamino)-5-(5-(trifluoromethyl)benzo[d]oxazol-2-yl)-2,7-naphthyridin-3-yl)cyclopropanecarboxamide]",–
≥ 7.00,≥ 6.30,–,"CNc1ncc(-c2nc3cc(C#N)ccc3o2)c2cc(NC(=O)C3CC3)ncc12 [Example 210, N-(5-(5-cyanobenzo[d]oxazol-2-yl)-8-(methylamino)-2,7-naphthyridin-3-yl)cyclopropanecarboxamide]",–
–,≥ 6.30,≥ 7.00,"CNc1ncc(C#CC23CC(OC)(C2)C3)c2cc(NC(=O)C3CC3)ncc12 [Example 958, N-(5-((3-methoxybicyclo[1.1.1]pentan-1-yl)ethynyl)-8-(methylamino)-2,7-naphthyridin-3-yl)cyclopropanecarboxamide]",–
≥ 7.00,≥ 6.30,–,"CNc1ncc(-c2nc3ccc(N4CC(OC)C4)cc3o2)c2cc(NC(=O)C3CC3)ncc12 [Example 274, N-(5-(6-(3-methoxyazetidin-1-yl)benzo[d]oxazol-2-yl)-8-(methylamino)-2,7-naphthyridin-3-yl)cyclopropanecarboxamide]",–
–,–,≥ 7.00,CNc1ncc(-c2nc3ccc(-n4cccn4)cn3n2)c2cc(NC(=O)C3CC3)ncc12 [Example 1038],"pIC50 [1, 5]: ≥ 6.30"
–,≥ 6.30,≥ 7.00,"CNc1ncc(C#Cc2ccc(OCC3COC3)cn2)c2cc(NC(=O)C3CC3)ncc12 [Example 678, N-(8-(methylamino)-5-((5-(oxetan-3-ylmethoxy)pyridin-2-yl)ethynyl)-2,7-naphthyridin-3-yl)cyclopropanecarboxamide]",–
–,–,≥ 7.00,CNc1ncc(-c2nc3ccc(N4CCO[C@@H](C(C)(C)OC)C4)cn3n2)c2cc(NC(=O)C3CC3)ncc12 [Example 1032],"pIC50 [1, 5]: ≥ 6.30"
–,< 6.30,≥ 7.00,"CNc1ncc(C#Cc2ccc3nnn(C)c3c2)c2cc(NC(=O)C3(F)CC3)ncc12 [Example 759, 1-fluoro-N-(5-((1-methyl-1H-benzo[d][1,2,3]triazol-6-yl)ethynyl)-8-(methylamino)-2,7-naphthyridin-3-yl)cyclopropane-1-carboxamide]",–
–,≥ 6.30,≥ 7.00,"CNc1ncc(C#Cc2ccc(OC(C)CC3COC3)cc2)c2cc(NC(=O)C3CC3)ncc12 (centres unmarked) [Example 713, N-(8-(methylamino)-5-((4-((1-(oxetan-3-yl)propan-2-yl)oxy)phenyl)ethynyl)-2,7-naphthyridin-3-yl)cyclopropanecarboxamide]",–

Compound,pKd (TYK2 JH2; [2]),"pIC50 [1, 3]",pKd (TYK2 JH2; [4]),other results
"CNc1ncc(-c2nc3cc(O[C@H]4C[C@@H](C#N)C4)ccc3o2)c2cc(NC(=O)C3CC3)ncc12 [Example 232, N-(5-(5-((1s,3s)-3-cyanocyclobutoxy)benzo[d]oxazol-2-yl)-8-(methylamino)-2,7-naphthyridin-3-yl)cyclopropanecarboxamide]",≥ 7.00,≥ 6.30,–,–
